Results from PubChem BioAssay (NCI).
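These data come from cells grown in 96-well plates and exposed to compound for 48 hours at five concentrations. GI50 is the concentration that inhibits growth by half. TGI is the concentration that stops growth completely.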

What was measured:
Experiment in all cases: growth of human tumour cells (NCI), 48 h
[1] = system: 786-0 renal
[2] = system: A498 renal
[3] = system: A549 NSCLC
[4] = system: ACHN renal
[5] = system: BT-549 breast
[6] = system: CAKI-1 renal
[7] = system: CCRF-CEM leukemia
[8] = system: COLO 205 colon
[9] = system: DU-145 prostate
[10] = system: EKVX NSCLC
[11] = system: HCC-2998 colon
[12] = system: HCT-116 colon
[13] = system: HCT-15 colon
[14] = system: HL-60(TB) leukemia
[15] = system: HOP-62 NSCLC
[16] = system: HOP-92 NSCLC
[17] = system: HS 578T breast
[18] = system: HT29 colon
[19] = system: IGROV1 ovarian
[20] = system: K-562 leukemia
[21] = system: KM12 colon
[22] = system: LOX IMVI melanoma
[23] = system: M14 melanoma
[24] = system: MALME-3M melanoma
[25] = system: MCF7 breast
[26] = system: MDA-MB-435
[27] = system: MDA-MB-468 breast
[28] = system: MOLT-4 leukemia
[29] = system: NCI-H226 lung
[30] = system: NCI-H23 lung
[31] = system: NCI-H460 lung
[32] = system: NCI-H522 lung
[33] = system: NCI/ADR-RES ovarian
[34] = system: OVCAR-3 ovarian
[35] = system: OVCAR-4 ovarian
[36] = system: OVCAR-5 ovarian
[37] = system: OVCAR-8 ovarian
[38] = system: PC-3 prostate
[39] = system: RPMI-8226 leukemia
[40] = system: RXF 393 renal
[41] = system: SF-268 CNS
[42] = system: SF-295 CNS
[43] = system: SF-539 CNS
[44] = system: SK-MEL-2 melanoma
[45] = system: SK-MEL-28 melanoma
[46] = system: SK-MEL-5 melanoma
[47] = system: SK-OV-3 ovarian
[48] = system: SN12C renal
[49] = system: SNB-19 CNS
[50] = system: SNB-75 CNS
[51] = system: SW-620 colon
[52] = system: T-47D breast
[53] = system: TK-10 renal
[54] = system: U251 CNS
[55] = system: UACC-257 melanoma
[56] = system: UACC-62 melanoma

O=C(N/N=C/c1ccc(B(O)O)o1)c1[nH]c2ccc(Br)cc2c1-c1ccccc1
GI50 [1]: 17.9 µM
TGI [1]: 54.6 µM
GI50 [2]: 23.3 µM
TGI [2]: > 100 µM
GI50 [3]: 27.1 µM
TGI [3]: > 100 µM
GI50 [4]: 29.6 µM
TGI [4]: > 100 µM
GI50 [5]: 12 µM
TGI [5]: 33.3 µM
GI50 [6]: 30.8 µM
TGI [6]: > 100 µM
GI50 [7]: 17.5 µM
TGI [7]: 55.4 µM
GI50 [8]: 19.8 µM
TGI [8]: 46.6 µM
GI50 [9]: 32.3 µM
TGI [9]: > 100 µM
GI50 [10]: 28.6 µM
TGI [10]: > 100 µM
GI50 [11]: 25.4 µM
TGI [11]: 90.2 µM
GI50 [12]: 16.9 µM
TGI [12]: > 100 µM
GI50 [13]: 22.6 µM
TGI [13]: > 100 µM
GI50 [14]: 13 µM
TGI [14]: 37.1 µM
GI50 [15]: 11.9 µM
TGI [15]: 36.6 µM
GI50 [16]: 11.7 µM
TGI [16]: 52.8 µM
GI50 [17]: 8.91 µM
TGI [17]: 93.6 µM
GI50 [18]: 20.6 µM
TGI [18]: 50.9 µM
GI50 [19]: 25.7 µM
TGI [19]: > 100 µM
GI50 [20]: 5.46 µM
TGI [20]: 45 µM
GI50 [21]: 19.2 µM
TGI [21]: > 100 µM
GI50 [22]: 18.1 µM
TGI [22]: > 100 µM
GI50 [23]: 19 µM
TGI [23]: > 100 µM
GI50 [24]: 26.9 µM
TGI [24]: > 100 µM
GI50 [25]: 24.7 µM
TGI [25]: > 100 µM
GI50 [26]: 3.66 µM
TGI [26]: > 100 µM
GI50 [27]: 19.3 µM
TGI [27]: 57.2 µM
GI50 [28]: 20.3 µM
TGI [28]: 73.3 µM
GI50 [29]: 45.8 µM
TGI [29]: > 100 µM
GI50 [30]: 26.5 µM
TGI [30]: > 100 µM
GI50 [31]: 29.1 µM
TGI [31]: > 100 µM
GI50 [32]: 2.94 µM
TGI [32]: 13.5 µM
GI50 [33]: 12.2 µM
TGI [33]: 56.2 µM
GI50 [34]: 14.8 µM
TGI [34]: > 100 µM
GI50 [35]: 47 µM
TGI [35]: > 100 µM
GI50 [36]: 27.5 µM
TGI [36]: > 100 µM
GI50 [37]: 17.7 µM
TGI [37]: 41.6 µM
GI50 [38]: 12.9 µM
TGI [38]: > 100 µM
GI50 [39]: 29.5 µM
TGI [39]: > 100 µM
GI50 [40]: 5.38 µM
TGI [40]: 24.1 µM
GI50 [41]: 16.1 µM
TGI [41]: > 100 µM
GI50 [42]: 13.1 µM
TGI [42]: 43.1 µM
GI50 [43]: 13 µM
TGI [43]: 31.3 µM
GI50 [44]: 13.5 µM
TGI [44]: 43.5 µM
GI50 [45]: 10.7 µM
TGI [45]: > 100 µM
GI50 [46]: 14.7 µM
TGI [46]: 35.5 µM
GI50 [47]: 21.8 µM
TGI [47]: 67.3 µM
GI50 [48]: 24.4 µM
TGI [48]: > 100 µM
GI50 [49]: 21.1 µM
TGI [49]: 89.7 µM
GI50 [50]: 3.26 µM
TGI [50]: 20.6 µM
GI50 [51]: 35.7 µM
TGI [51]: > 100 µM
GI50 [52]: 21.4 µM
TGI [52]: > 100 µM
GI50 [53]: 37.1 µM
TGI [53]: > 100 µM
GI50 [54]: 16.5 µM
TGI [54]: 44.4 µM
GI50 [55]: 19.1 µM
TGI [55]: > 100 µM
GI50 [56]: 3.24 µM
TGI [56]: 15.5 µM
